Reference: ChEMBL document CHEMBL5150074, “Structure-Based Design of a Dual-Targeted Covalent Inhibitor Against Papain-like and Main Proteases of SARS-CoV-2” (J Med Chem, 2022)

Key:
[1] = Binding affinity to SARS-CoV-2 MPro C145A mutant assessed as dissociation constant by isothermal titration calorimetry assay; parameters: species or system Severe acute respiratory syndrome coronavirus 2
[2] = Binding affinity to SARS-CoV-2 PLpro C111A mutant assessed as dissociation constant by isothermal titration calorimetry assay; parameters: species or system Severe acute respiratory syndrome coronavirus 2

## Cl.O=C1C=C(Nc2ccccc2N2CCNCC2)C2=NS(=O)(=O)c3cccc1c32
[1]
  Kd: 1.5 µM
[2]
  Kd: 2.3 µM
